These are literature values, as cited in US20090136549A1, “TRANSDERMAL PATCH CONTAINING RASAGILINE FOR TREATMENT OR PROPHYLAXIS OF NERVOUS SYSTEM DISEASE AND ITS PREPARATION PROCESS” (Chongqing Pharmaceutical Research Institute Co., Ltd., priority 2006, published 2009).

One series has as its system patients with early PD. Conditions: rasagiline 2 mg/d for 1 year.
The conditions of series [1]: oral administration.

`C#CCN[C@@H]1CCc2ccccc21` [rasagiline]: in the series with patients with early PD, the “mean UPDRS score lower than that of the patients administered with placebo in the last 6 months” value is given as 2.29 units and the “mean UPDRS score lower than that of the patients administered with rasagiline 1 mg/d for 1 year” value is 1.82 units. Also, the “reduction of blood peak concentration by eating” value in series [1] is 60%.
